What was measured:
[1] = Liposome hydration and extrusion; assay type: physicochemical; settings: at 50° C.; with either DLPE or cholesterol
Procedure: (§1) DOBG, DMBG and DPBG were used to prepare liposomes with either cholesterol or DLPE (1,2-dilauroyl-sn-glycerol-3-phosphoethanolamine) as neutral lipids. The lipids were dissolved in a mixture of chloroform and methanol (1:1). Lipid films of cationic and neutral lipid at a 1:1 molar ratio were formed with a rotary evaporator. The films were hydrated with either 5% dextrose in water (D5W) or 5 mM HEPES buffer (pH 7.4) at various temperatures. […] DMBG:DLPE was hydrated in D5W at 50° C. and extruded through a 0.05 μm membrane. […] DOBG:cholesterol and DOBG:DLPE were hydrated in D5W at room temperature and extruded through a 0.05 μm membrane.

[2] = strongly basic head group; cited from earlier work
[3] = test system: CAT reporter gene expression in lung; experiment: Gene transfer efficiency by intravenous delivery: CAT reporter gene (plasmid p4119) activity in mouse organs; assay type: in vivo, ICR female mice; settings: with either cholesterol or DLPE as neutral lipids
Procedure: as §1

[4] = test system: in vivo transfection; experiment: Comparison of in vivo transfection activity of biguanide and guanidine derivatives with identical hydrophobic chains; settings: data not shown
Text: The biguanide derivatives of the present invention differ from the guanidine derivatives described in WO 95/14381 in the positively charged headgroups. The positive charge of the biguanide derivatives is delocalized over five nitrogen atoms, whereas the positive charge of the guanidine derivatives is delocalized over three nitrogen atoms. Thus, compounds of the present invention have been compared to the guanidine derivatives having the identical hydrophobic chains (not shown).

Q: With `CCCCCCCCCCCCCCCC(=O)OCCN(CCOC(=O)CCCCCCCCCCCCCCC)C(=N)NC(=N)N` [DPBG, N,N-di(2-(palmitoyloxy)ethyl)biguanide] as the compound, how does the “Hydration of lipid film” value [1] read?
A: could not be completely hydrated

Q: For `N=C(N)NC(=N)N` [biguanide], which pKa [2] is on record?
A: 11.5

Q: What does the source list for `CCCCCCCC/C=C\CCCCCCCC(=O)OCCN(CCOC(=O)CCCCCCC/C=C\CCCCCCCC)C(=N)NC(=N)N` [DOBG, N,N-di(2-(oleoyloxy)ethyl) biguanide]?
A: transfection activity in the lung compared with DOTIM:cholesterol [3]: comparable to or higher than DOTIM:cholesterol; in vivo transfection activity, dioleoyl derivatives of biguanide versus guanidine [4]: higher in vivo transfection activity than the dioleolyl derivatives of guanidine

Source: patent publication US5958894A, “Amphiphilic biguanide derivatives” (Megabios Corporation, priority 1997, dated 1999)
